US20230340012A1, “NATURAL AND SYNTHETIC COMPOUNDS FOR TREATING CANCER AND OTHER DISEASES” (PACIFIC ARROW LIMITED, priority 2009, published 2023)

Assays:
[1] = system: cancer cells; test: Inhibition of cancer growth, cancer invasion, cell invasion or cancer cell invasion; type: cell-based
Text: The program is based on our purification methods and biological assays including the MTT assay. See International Application No. PCT/US05/31900, filed Sep. 7, 2005, U.S. Serial No. 11/289,142, filed Nov. 28, 2005, and U.S. Serial No. 11/131551, filed May 17, 2005, and PCT/US2008/002086, 1188-ALA-PCT, filed Feb. 15, 2008, 12/344,682, 1020-B1-US, filed Dec. 29, 2008. The details of Analysis of gene expression of ES2 cells after Y-treatment by Microarray, Data Analysis Methods and Western blot in PCT/US2008/002086, 1188-ALA-PCT, filed Feb. 15, 2008, and the cell invasion experiments methods in International Application PCT/US2010/0042240, filed Jul. 16, 2010.

[2] = system: Erythrocytes (RBC); test: The haemolytic assay; conditions: in words, no concentration given
[3] = system: ANGPT2, DDIT3, LIF and NFKB1Z; conditions: Real-time PCR; results in Table 19-21 of PCT/US09/34115; cited from earlier work

| SMILES | inhibiting cancer growth, cancer invasion, cell invasion or cancer cell invasion [1] | hemolytic activity [2] | expression of the genes ANGPT2, DDIT3, LIF and NFKB1Z [3] |
| --- | --- | --- | --- |
| C/C=C(/C)C(=O)O[C@H]1[C@H](OC(=O)/C(C)=C\C)[C@@]2(CO)C(CC1(C)C)C1=CCC3[C@@]4(C)CC[C@H](O)C(C)(C)C4CC[C@@]3(C)[C@]1(C)[C@@H](O)[C@H]2O (stereo partly shown) [ACH-Y3] | has the ability to inhibit | less potent | increase |
| C/C=C(/C)C(=O)O[C@H]1[C@H](OC(=O)/C(C)=C\C)[C@@]2(CO)C(CC1(C)C)C1=CCC3[C@@]4(C)CC[C@H](O[C@@H]5OC(C(=O)O)[C@@H](O)[C@@H](O[C@@H]6O[C@@H](CO)[C@@H](O)C6O)C5O[C@@H]5OC(CO)[C@H](O)[C@@H](O)C5O)C(C)(C)C4CC[C@@]3(C)[C@]1(C)[C@@H](O)[C@H]2O (stereo partly drawn) [Compound Y, 3-O-[β-D-galactopyranosyl (1→2)]-α-L-arabinofuranosy (1→3)-β-D-glucuronopyranosyl-21,22-O-diangeloyl-3β, 15α, 16α, 21β, 22α, 28-hexahydroxyolean-12-ene] | – | – | increase |
